Data published in ChEMBL document CHEMBL1141893, “5-Lipoxygenase inhibition by N-hydroxycarbamates in dual-function compounds” (Bioorg Med Chem Lett, 2005).
pIC50, pKi: −log10 of the molar value.

Tests used:
[1] = biological target: T1, Polyunsaturated fatty acid 5-lipoxygenase (Homo sapiens, UniProt P09917); assay: Inhibitory concentration against 5-lipoxygenase in human whole blood; format: functional, tissue-based
T1 sequence (P09917 whole entry): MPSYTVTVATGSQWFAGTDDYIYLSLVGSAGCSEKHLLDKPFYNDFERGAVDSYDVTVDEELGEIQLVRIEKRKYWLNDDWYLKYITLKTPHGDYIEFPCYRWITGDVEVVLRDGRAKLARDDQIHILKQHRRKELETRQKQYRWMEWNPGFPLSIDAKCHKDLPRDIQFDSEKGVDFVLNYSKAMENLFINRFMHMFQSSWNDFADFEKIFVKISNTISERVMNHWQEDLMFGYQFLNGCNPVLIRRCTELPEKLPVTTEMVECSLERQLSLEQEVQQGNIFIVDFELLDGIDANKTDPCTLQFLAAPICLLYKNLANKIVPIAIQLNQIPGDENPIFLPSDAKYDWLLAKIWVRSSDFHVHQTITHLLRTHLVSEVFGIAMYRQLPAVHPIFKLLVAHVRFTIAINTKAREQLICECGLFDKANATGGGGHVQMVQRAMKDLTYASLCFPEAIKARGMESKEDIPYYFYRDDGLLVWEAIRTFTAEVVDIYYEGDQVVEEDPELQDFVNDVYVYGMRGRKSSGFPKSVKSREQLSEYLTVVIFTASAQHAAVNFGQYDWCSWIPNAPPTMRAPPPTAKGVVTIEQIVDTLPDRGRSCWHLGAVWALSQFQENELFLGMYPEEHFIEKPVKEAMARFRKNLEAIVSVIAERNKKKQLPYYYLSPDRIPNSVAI

[2] = biological target: Histamine H1 receptor (Homo sapiens, UniProt P35367); assay: Binding affinity for human Histamine H1 receptor in CHO K1 cells; format: cell-based
Chain of Histamine H1 receptor (P35367 whole entry): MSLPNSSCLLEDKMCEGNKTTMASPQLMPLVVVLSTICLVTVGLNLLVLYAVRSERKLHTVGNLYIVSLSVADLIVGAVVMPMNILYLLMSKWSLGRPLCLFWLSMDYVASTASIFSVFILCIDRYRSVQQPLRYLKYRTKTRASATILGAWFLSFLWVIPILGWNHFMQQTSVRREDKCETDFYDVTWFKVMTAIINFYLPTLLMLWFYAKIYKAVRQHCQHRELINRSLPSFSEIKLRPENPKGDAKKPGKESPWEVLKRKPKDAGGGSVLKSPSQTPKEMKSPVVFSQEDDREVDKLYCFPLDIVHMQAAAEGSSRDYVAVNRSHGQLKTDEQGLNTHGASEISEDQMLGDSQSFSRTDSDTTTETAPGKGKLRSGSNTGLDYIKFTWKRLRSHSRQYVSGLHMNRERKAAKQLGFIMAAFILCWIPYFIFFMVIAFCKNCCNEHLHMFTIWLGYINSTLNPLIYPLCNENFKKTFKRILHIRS

[3] = biological target: T1, Polyunsaturated fatty acid 5-lipoxygenase; assay: Inhibitory concentration against human 5-lipoxygenase

pIC50 [1] | pKi [2] | pIC50 [3] | Compound
6.99 | 8.02 | 6.47 | CC(C)OC(=O)N(O)CCC#Cc1ccc(OCCCCN2CCN(C(c3ccc(F)cc3)c3ccc(F)cc3)CC2)cc1
7.14 | 8.23 | 6.44 | CCOC(=O)N(O)CCC#Cc1ccc(OCCCCN2CCN(C(c3ccc(F)cc3)c3ccc(F)cc3)CC2)cc1
– | – | 6.71 | NC(=O)N(O)CCC#Cc1ccc(OCCCCN2CCN(C(c3ccc(F)cc3)c3ccc(F)cc3)CC2)cc1
6.75 | 8.12 | 6.38 | CC(C)COC(=O)N(O)CCC#Cc1ccc(OCCCCN2CCN(C(c3ccc(F)cc3)c3ccc(F)cc3)CC2)cc1
6.82 | 7.75 | 6.46 | O=C(OCc1ccccc1)N(O)CCC#Cc1ccc(OCCCCN2CCN(C(c3ccc(F)cc3)c3ccc(F)cc3)CC2)cc1
7.05 | 8.30 | 6.77 | COC(=O)N(O)CCC#Cc1ccc(OCCCCN2CCN(C(c3ccc(F)cc3)c3ccc(F)cc3)CC2)cc1
